Assay results reported in ChEMBL document CHEMBL5096158, “HIV latency reversal agents: A potential path for functional cure?” (Eur J Med Chem, 2021).

Key:
[1] = system: Human immunodeficiency virus 1; test: Reversal of HIV-1 latency infected in GFP-fused human J-Lat A2 cells assessed as increase in GFP expression at 4 uM incubated for 3 hrs by flow cytometry; format: functional
[2] = system: Human immunodeficiency virus 1; test: Reversal of HIV-1 latency infected in GFP-fused human J-Lat C11 cells assessed as increase in GFP expression at 4 uM incubated for 3 hrs by flow cytometry; format: functional
[3] = system: Human immunodeficiency virus 1; test: Reactivation of HIV-1 latency in GFP-fused human primary CD4+ve Th cells infected with HIV-1NL4-3 luciferase virus assessed as fold increase in GFP expression incubated for 48 hrs by luciferase luminescence analysis; format: functional
[4] = system: Human immunodeficiency virus 1; test: Reversal of HIV-1 latency infected in GFP-fused human J-Lat 10.6 cells increase in GFP expressing cells by FACS analysis; format: functional, organism-based; settings: Human immunodeficiency virus 1, J-Lat 10.6
[5] = system: Human immunodeficiency virus 1; test: Reactivation of HIV-1 latency infected in GFP-fused human J-Lat 10.6 cells assessed as increase in GFP expression incubated for 48 hrs by flow cytometry; format: functional, organism-based; settings: Human immunodeficiency virus 1, J-Lat 10.6, 48 h
[6] = system: Human immunodeficiency virus 1; test: Reversal of HIV-1 latency infected in human J-Lat Tat-GFP Clone A7 cells assessed as increase in GFP expressing cells at 200 nM incubated for 72 hrs by flow cytometry analysis relative to control; format: functional
[7] = system: Human immunodeficiency virus 1; test: Reversal of HIV-1 latency infected in GFP-fused human J-Lat C11 cells assessed as increase in GFP expression at 100 uM incubated for 72 hrs by flow cytometry; format: functional
[8] = system: Human immunodeficiency virus 1; test: Reversal of HIV-1 latency infected in GFP-fused human A10.6 cells assessed as increase in GFP expressing cells at 1 uM incubated for 24 hrs by FACS analysis; format: functional, A10.6 cell
[9] = system: Human immunodeficiency virus 1; test: Reversal of HIV-1 latency infected in GFP-fused human A10.6 cells assessed as fold increase in acetylation of H3 within Nuc-1 at 0.5 uM incubated for 4 hrs by ChIP assay; format: functional, A10.6 cell
[10] = system: Human immunodeficiency virus 1; test: Reversal of HIV-1 latency infected in GFP-fused human A10.6 cells assessed as increase in GFP expressing cells at 0.25 uM incubated for 24 hrs by FACS analysis; format: functional
[11] = system: Human immunodeficiency virus 1; test: Reversal of HIV-1 latency infected in GFP-fused human A10.6 cells assessed as fold increase in acetylation of H4 within Nuc-1 at 0.5 uM incubated for 4 hrs by ChIP assay; format: functional, A10.6 cell
[12] = system: Human immunodeficiency virus 1; test: Reversal of HIV-1 latency in human ACH-2 cells assessed as increase in GFP positive cells incubated for 24 hrs by flow cytometry; format: functional, organism-based, ACH-2 cell line; settings: Human immunodeficiency virus 1, ACH-2, 24 h
[13] = system: Human immunodeficiency virus 1; test: Reversal of HIV-1 latency infected in GFP-fused human Jurkat latent cells assessed as increase in GFP expressing cells at 4 uM incubated for 48 hrs by flow cytometry analysis; format: functional
[14] = Inhibition of HIV-1 latency infected in human ACH-2 cells assessed as fold increase in HIV production by measuring p24 level incubated for 48 hrs in presence of 5-azacytidine by ELISA; format: functional, Human immunodeficiency virus 1, ACH-2 cell line
[15] = Inhibition of HIV-1 latency infected in human ACH-2 cells assessed as fold increase in HIV production by measuring p24 level incubated for 48 hrs in presence of vorinostat by ELISA; format: functional, Human immunodeficiency virus 1, ACH-2 cell line
[16] = Inhibition of HIV-1 latency infected in human ACH-2 cells assessed as fold increase in HIV production by measuring p24 level incubated for 48 hrs in presence of BIX01294 by ELISA; format: functional, Human immunodeficiency virus 1, ACH-2 cell line
[17] = system: Human immunodeficiency virus 1; test: Reactivation of HIV-1 latency in human U1 cells assessed as fold increase in HIV transcription by measuring GFP expression at 2 uM incubated for 24 hrs in presence of PEP005 by flow cytometry; format: functional
[18] = system: Human immunodeficiency virus 1; test: Reactivation of HIV-1 latency infected in human Th17 cells assessed as increase in HIV production by measuring phosphorylated S175 CDK9 levels at 1 uM incubated for 96 hrs by flow cytometry; format: functional
[19] = system: Human immunodeficiency virus 1; test: Reactivation of HIV-1 latency infected in human Th17 cells assessed as increase in HIV production by measuring phosphorylated S175 CDK9 levels at 10 nM incubated for 96 hrs by flow cytometry; format: functional

Nc1ccc(F)cc1NC(=O)c1ccc(CNC(=O)/C=C/c2cccnc2)cc1
Activity [1]: 80.6%
Activity [2]: 82.6%

O=C(CCCCSc1nc(-c2ccc(-c3ccccc3)cc2)cc(=O)[nH]1)NO
fold change (FC) [3]: 4.3
EC50 [4]: 0.35 µM

CC(C)=CC(=O)O[C@H]1C(C)=C[C@]23C(=O)[C@H](C=C(CO)[C@@H](O)[C@]12O)C1C(C[C@H]3C)C1(C)C (some centres undefined)
EC50 [5]: 0.058 µM

CN(C)c1ccc(C(=O)NCCCCCCC(=O)NO)cc1
Activity [6]: 25.2%

COc1cc(OC)c2c(=O)[nH]c(-c3cc(C)c(OCCO)c(C)c3)nc2c1 [APABETALONE]
Activity [7]: 75%

CCC(=O)CCCCC[C@@H]1NC(=O)[C@H]2CCCCN2C(=O)[C@H]([C@@H](C)CC)NC(=O)[C@H](Cc2cc3ccccc3n2OC)NC1=O
Activity [8]: 24.9%
fold change (FC) [9]: 1.34
Activity [10]: 7.5%
fold change (FC) [11]: 3.15

CC(C)[C@H]1C(=O)N[C@H](CO)Cc2c[nH]c3cccc(c23)N1C [INDOLACTUM]
EC50 [12]: 0.047 µM

CC(=O)SCCCCC[C@H](NC(=O)C1CCC(=O)N1)C(=O)Nc1ccccc1 (some centres undefined)
Activity [13]: 52%

COc1cc2nc(N3CCCN(C)CC3)nc(NC3CCN(Cc4ccccc4)CC3)c2cc1OC
fold change (FC) [14]: 47
fold change (FC) [15]: 47

Nc1ncn([C@@H]2O[C@H](CO)[C@@H](O)[C@H]2O)c(=O)n1 [AZACITIDINE]
fold change (FC) [16]: 47

Cc1sc2c(c1C)C(c1ccc(Cl)cc1)=N[C@@H](CC(=O)OC(C)(C)C)c1nnc(C)n1-2
fold change (FC) [17]: 250

CCN(c1cc(-c2ccc(CN3CCOCC3)cc2)cc(C(=O)NCc2c(C)cc(C)[nH]c2=O)c1C)C1CCOCC1 [TAZEMETOSTAT]
Activity [18]: 35%
Activity [19]: 25%
